Earlier results in US20240316039A1, “METHOD OF REDUCING ELEVATED INTRAOCULAR PRESSURE” (SUN PHARMA ADVANCED RESEARCH COMPANY LIMITED, priority 2021, published 2024).
Read-outs that look alike come from different tables or passages of the source.

Tested on: ocular hypertensive eyes and normotensive eyes

Brc1c(NC2=NCCN2)ccc2nccnc12 [Brimonidine]
duration of effect (in vivo): less than 12 hours | time of peak effect after instillation (in vivo): ≤ 2 h | peak IOP reduction (normotensive eyes (less than 21 mm Hg)): 6-18% | peak IOP reduction (ocular hypertensive eyes): 20-25%
